Test results from patent publication US20150044201A1, “CYCLON EXPRESSION FOR THE IDENTIFICATION AND CONTROL OF CANCER CELLS” (UNIVERSITE JOSEPH FOURIER - GRENOBLE, priority 2012, published 2015).
Entries after “also recorded” stand apart in the source; their conditions may differ.

What was measured:
Raji cells [1] = assay: Evaluation of Rituximab sensitivity, direct apoptosis assay; assay type: cell-based; conditions: sh Cyclon vs sh Ctrl cell lines (Raji, B593, SUDHL4); 24 h, 10 μg/ml Rituximab
Protocol: (§1) Non-targeting or CYCLON targeting short hairpin (sh) RNA sequences were designed using the DSIR algorithm (http://biodev.cea.fr/DSIR/DSIR.html). Sequences, provided in Table 1, were cloned into the pLKO-1 lentiviral vector (Addgene) and packaged as described (Levy et al., 2010) or purchased from Santa Cruz. Cells were transduced with lentiviral particles at a MOI of 10. Stable cell lines were established under puromycin selection (1 μg/ml).
(§2) Cells were treated with 1 to 10 μg/ml Rituximab (Roche) or isotype control (Herceptin, Roche) for 24 h for direct apoptosis assays and for 1 h in presence of 20% human serum as a source of complement for CDC assays. Cell viability was evaluated by AnnexinV/IP (Beckman Coulter) or IP staining and flow cytometry analysis (LSIIR, BD). Specific cell death was calculated as (% of cell death with Rituximab−% cell death with Herceptin)/(1−% cell death with Herceptin), n=8 for each cell line.

Raji cells [2] = assay: Xenotransplantation assay, Raji shCtrl / shCyclon tumours treated with Rituximab; assay type: in vivo, nude mice; conditions: subcutaneous, daily intraperitoneal 200 μg Rituximab
Protocol: 3·10^6 Raji cells were injected subcutaneously into the flank of 6 to 8 week-old nude mice as described. Four mice were injected, each of them with shCtrl and shCyclon Raji cells into the right and left flanks respectively. When tumours were palpable (˜[…]), mice were given daily intraperitoneal injections of 200 μg Rituximab. Tumour volume was measured every 2 days using the formula I^2×L×0.52 (n=4 for each group).

Raji cells [3] = assay: Evaluation of Rituximab sensitivity, complement dependent cytotoxicity (CDC) assay; assay type: cell-based; conditions: sh Cyclon vs sh Ctrl cell lines (Raji, B593, SUDHL4); 1 h, 1 μg/ml Rituximab, 20% human serum
Protocol: as §1, §2

Cyclon = conditions: K562 leukemic cells treated with Imatinib, public data GDS3043; cited from earlier work

Compound | sensitivity of cancer cells through direct apoptosis (specific cell death) (Raji cells [1]) | tumour regression, day of treatment (Raji cells [2]; Cyclon-depleted tumours (Raji shCyclon)) [days] | tumour regression, day of treatment (Raji cells [2]; control tumours (Raji shCtrl)) [days] | sensitivity of cancer cells through complement dependent cytotoxicity (CDC specific cell death) (Raji cells [3]) | Cyclon expression level (Cyclon)
Rituximab | increased sensitivity | ≤ 4 | 14 | increased sensitivity | 
Cc1ccc(NC(=O)c2ccc(CN3CCN(C)CC3)cc2)cc1Nc1nccc(-c2cccnc2)n1 [Imatinib] |  |  |  |  | down-regulation of Cyclon; also recorded: reduce Cyclon expression levels
